Experiments:
[1] = biological target: human EPRS (bifunctional glutamyl-prolyl-tRNA synthetase) (Homo sapiens, UniProt P07814); assay: biochemical assay
[2] = biological target: cytoplasmic prolyl-tRNA synthetase (PfcPRS, PF3D7_1213800) (Plasmodium falciparum, UniProt Q8I5R7, L482H); assay: biochemical assay on purified recombinant mutant enzyme
[3] = biological target: cytoplasmic prolyl-tRNA synthetase (PfcPRS, PF3D7_1213800) (Plasmodium falciparum, UniProt Q8I5R7); assay: biochemical assay on purified recombinant enzyme

human EPRS (bifunctional glutamyl-prolyl-tRNA synthetase), sequence (P07814 whole entry): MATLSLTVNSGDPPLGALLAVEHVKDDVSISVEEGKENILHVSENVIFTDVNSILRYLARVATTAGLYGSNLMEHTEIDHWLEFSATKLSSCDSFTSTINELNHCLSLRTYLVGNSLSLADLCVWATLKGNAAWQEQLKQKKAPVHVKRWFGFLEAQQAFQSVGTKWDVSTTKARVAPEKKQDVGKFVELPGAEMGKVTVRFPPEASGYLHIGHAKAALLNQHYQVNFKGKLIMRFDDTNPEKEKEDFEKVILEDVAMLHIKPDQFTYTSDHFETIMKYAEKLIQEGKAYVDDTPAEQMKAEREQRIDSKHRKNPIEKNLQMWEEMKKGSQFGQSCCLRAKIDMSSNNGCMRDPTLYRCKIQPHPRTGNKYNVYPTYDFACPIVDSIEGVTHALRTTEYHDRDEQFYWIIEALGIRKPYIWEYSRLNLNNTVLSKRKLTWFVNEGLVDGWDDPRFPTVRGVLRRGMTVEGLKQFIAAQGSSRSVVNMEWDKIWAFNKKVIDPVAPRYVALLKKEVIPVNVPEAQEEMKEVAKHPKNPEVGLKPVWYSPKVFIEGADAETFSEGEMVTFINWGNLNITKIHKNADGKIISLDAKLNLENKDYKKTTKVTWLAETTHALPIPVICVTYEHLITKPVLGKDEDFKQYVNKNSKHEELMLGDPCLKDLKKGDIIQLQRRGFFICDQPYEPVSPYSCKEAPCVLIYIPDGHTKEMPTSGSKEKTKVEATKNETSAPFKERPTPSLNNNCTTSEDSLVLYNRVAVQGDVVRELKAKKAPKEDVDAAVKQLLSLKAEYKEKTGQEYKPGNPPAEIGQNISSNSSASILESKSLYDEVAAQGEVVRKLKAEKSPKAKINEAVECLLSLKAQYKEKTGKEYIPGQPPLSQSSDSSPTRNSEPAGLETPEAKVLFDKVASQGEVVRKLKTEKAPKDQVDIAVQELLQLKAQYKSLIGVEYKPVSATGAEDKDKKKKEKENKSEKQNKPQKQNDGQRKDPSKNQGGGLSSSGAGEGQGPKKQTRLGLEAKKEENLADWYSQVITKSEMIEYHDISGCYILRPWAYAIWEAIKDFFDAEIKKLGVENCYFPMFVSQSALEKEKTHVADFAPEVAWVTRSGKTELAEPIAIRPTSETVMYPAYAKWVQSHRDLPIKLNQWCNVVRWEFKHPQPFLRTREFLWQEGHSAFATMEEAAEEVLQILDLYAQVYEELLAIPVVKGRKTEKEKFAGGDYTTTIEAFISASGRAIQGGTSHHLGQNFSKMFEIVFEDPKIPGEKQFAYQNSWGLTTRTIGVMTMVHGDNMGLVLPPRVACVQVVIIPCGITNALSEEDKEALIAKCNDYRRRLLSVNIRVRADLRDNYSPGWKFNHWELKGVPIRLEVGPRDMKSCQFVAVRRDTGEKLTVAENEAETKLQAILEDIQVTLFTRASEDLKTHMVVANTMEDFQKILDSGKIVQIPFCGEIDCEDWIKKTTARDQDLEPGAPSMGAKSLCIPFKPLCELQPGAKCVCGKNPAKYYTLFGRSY

Which Ki [1] does the source give for O=c1c2cc(Cl)c(Br)cc2ncn1C[C@@H](O)C[C@H]1NCCC[C@@H]1O [halofuginol] here?
The Ki was 65.7 nM.

And the Ki [2]?
The Ki was 1120 nM.

What about the Ki [3] of the same compound?
Its Ki is 71.1 nM.
